Laboratory results published in patent US20220087969A1, “METHOD FOR TREATING ASTHMA” (Olatec Therapeutics LLC, priority 2019, published 2022).

Key:
[1] = tested on: OVA-induced allergic airway inflammation; assay: Leukocyte subpopulations in bronchoalveolar lavage fluid, OVA allergic asthma model, i.p. dapansutrile; assay type: in vivo, C57BL/6j mice; conditions: Day 29
Description: A well-established mouse model of experimental allergic asthma (Sel 2008, Wegmann 2005, Wegmann 2007, Lunding 2015a) was used to evaluate dapansutrile as a therapeutic option in allergic bronchial asthma and to determine if dapansutrile would have an impact on airway inflammation and the development of airway hyperresponsiveness (AHR) Inflammation in this model is characterized by the infiltration of eosinophils as well as of TH2 cells and involves the subsequent development of AHR and mucus hyperproduction so that this model resembles the major pathophysiologic hallmarks of human bronchial asthma.
C57BL/6j mice were sensitized to OVA (ovalbumin) by three intraperitoneal (i.p.) injections of 10 μg OVA adsorbed to 150 mg aluminum hydroxide on days 1, 14, and 21. This sensitization results in an adoptive immune response against OVA with OVA-specific TH2 cells and the production of OVA-specific antibodies of the subclasses IgE and IgG4.
To induce acute allergic airway inflammation, mice were exposed three times to an OVA aerosol (1% w/v in PBS) on days 26, 27, and 28.
Healthy control animals (healthy group) were sham sensitized to PBS and subsequently challenged with PBS aerosol. Non-drug treated animals (asthmatic group) and drug-treated animals (treated group) were sensitized by […] and subsequently challenged with OVA aerosol. The treatment group were treated with dapansutrile at 60 mg/kg at days 25, 26, 27, and 28 by intraperitoneal (i.p). injection, whereas the healthy group and the asthmatic group were administered with saline by intraperitoneal injection on days 25, 26, 27, and 28.
Eight animals per group were used. All animals were sacrificed on day 29. The following readouts were measured according to Lunding, 2015b. • General infiltration of inflammatory cells into the broncheoalveolar lumen • Determination of the specific infiltration of eosinophils, neutrophils and lymphocytes by histologic differentiation of the bronchoalveolar lavage (BAL) cells. • Goblet cell hyperplasia by CAST system (Computer Assisted Stereological Toolbox), including making microscopic pictures of the airways. • Airway resistance in response to methacholine to determine the airway hyperresponsiveness.
Specifically, inflammatory cell subpopulations (eosinophils, macrophages, neutrophils, lymphocytes) infiltrating the bronchoalveolar lumen were quantified using cyto-spinned and quick-diff-stained cells from bronchoalveolar lavage fluids (BALF). Further, inflammatory cell infiltration was recorded from hematoxylin and eosin (HE)-stained lung/airway cross-sections. AHR was assessed by recording airway resistance during a methacholine (MCh) provocation test in mice mechanically ventilated by a Buxco FinePoint RC unit. Mucus hyperproduction was quantified in PAS (periodic acid-Schiff)-stained airway cross-sections undergoing systematic, uniform random sampling and subsequent stereologic analysis of mucus amount in the airways and mucus producing goblet cells in the airway mucosa.
Allergic airway inflammation and mucus hyperproduction were assessed on Day 29, 24 hours after the final OVA aerosol challenge and dapansutrile dose.

[2] = tested on: OVA-induced allergic airway inflammation; assay: Goblet cells covering airway mucosa, OVA model, oral dapansutrile in food; assay type: in vivo, mice
Description: The experimental protocols of the mouse model were the same as those described in Example 1, except dapansutrile was administered orally by food. The already-sensitized mice were fed ad libidum with food pellets containing 7.5 g/kg dapansutrile starting on day 22 for one week; the first aerosol challenge was on day 26. Mice typically consume about 4 g of food per day, resulting in an approximate daily dose of 0 mg/kg/day for control groups and 1,000 mg/kg/day for the treatment groups. […] OVA-sensitized, OVA-challenged asthmatic controls (asthmatic) were fed with control food pellets without dapansutrile. […] (data not shown).

## CS(=O)(=O)CCC#N [dapansutrile, 3-methanesulfonylpropionitrile]
[1]; 60 mg/kg i.p. days 25-28, vs asthmatic mice
  reduction in lymphocytes in BALF: 32%
[1]; 60 mg/kg i.p. days 25-28, vs asthmatic mice, p<0.0001
  reduction in eosinophils in BALF: approximately 60%
[1]; 60 mg/kg i.p. days 25-28, vs asthmatic mice, p<0.01
  reduction in neutrophils in BALF: 70%
[1]; 60 mg/kg i.p., vs asthmatic mice
  macrophage numbers in BALF: no significant reduction
[1]; treated mice, 60 mg/kg i.p. days 25-28, asthmatic 21.96×10^4
  eosinophils in BALF: 7.30×10^4 cells/ml
[1]; treated mice, 60 mg/kg i.p., asthmatic 0.80×10^4
  lymphocytes in BALF: 0.55×10^4 cells/ml
[1]; treated mice, 60 mg/kg i.p., asthmatic 2.41×10^4
  neutrophils in BALF: 0.70×10^4 cells/ml
[2]; oral, 7.5 g/kg in food, vs asthmatic mice
  change of goblet cells covering the airway mucosa: −29%
[2]; treated mice, oral 7.5 g/kg in food, asthmatic 15.75%
  goblet cells covering the airway mucosa: 11.16%
